{"source": "patent US10723741B1", "about": "“DNA polymerase IIIC inhibitors and use thereof” (Acurx Pharmaceuticals, LLC, priority 2018, dated 2020)", "data": [{"biological_target": "T1, Staphylococcus aureus DNA pol IIIC enzyme (Staphylococcus aureus, UniProt Q5HGG7)", "T1 construct": "The recombinant protein had full length of original protein and a His tag, a thrombin site and a T7 tag at N-terminus; His tag (N); thrombin site (N); T7 tag (N); made in house; host or cells: E. coli BL21 (DE3), plasmid pET-28a(+)", "T1 sequence (Q5HGG7 1-1438)": "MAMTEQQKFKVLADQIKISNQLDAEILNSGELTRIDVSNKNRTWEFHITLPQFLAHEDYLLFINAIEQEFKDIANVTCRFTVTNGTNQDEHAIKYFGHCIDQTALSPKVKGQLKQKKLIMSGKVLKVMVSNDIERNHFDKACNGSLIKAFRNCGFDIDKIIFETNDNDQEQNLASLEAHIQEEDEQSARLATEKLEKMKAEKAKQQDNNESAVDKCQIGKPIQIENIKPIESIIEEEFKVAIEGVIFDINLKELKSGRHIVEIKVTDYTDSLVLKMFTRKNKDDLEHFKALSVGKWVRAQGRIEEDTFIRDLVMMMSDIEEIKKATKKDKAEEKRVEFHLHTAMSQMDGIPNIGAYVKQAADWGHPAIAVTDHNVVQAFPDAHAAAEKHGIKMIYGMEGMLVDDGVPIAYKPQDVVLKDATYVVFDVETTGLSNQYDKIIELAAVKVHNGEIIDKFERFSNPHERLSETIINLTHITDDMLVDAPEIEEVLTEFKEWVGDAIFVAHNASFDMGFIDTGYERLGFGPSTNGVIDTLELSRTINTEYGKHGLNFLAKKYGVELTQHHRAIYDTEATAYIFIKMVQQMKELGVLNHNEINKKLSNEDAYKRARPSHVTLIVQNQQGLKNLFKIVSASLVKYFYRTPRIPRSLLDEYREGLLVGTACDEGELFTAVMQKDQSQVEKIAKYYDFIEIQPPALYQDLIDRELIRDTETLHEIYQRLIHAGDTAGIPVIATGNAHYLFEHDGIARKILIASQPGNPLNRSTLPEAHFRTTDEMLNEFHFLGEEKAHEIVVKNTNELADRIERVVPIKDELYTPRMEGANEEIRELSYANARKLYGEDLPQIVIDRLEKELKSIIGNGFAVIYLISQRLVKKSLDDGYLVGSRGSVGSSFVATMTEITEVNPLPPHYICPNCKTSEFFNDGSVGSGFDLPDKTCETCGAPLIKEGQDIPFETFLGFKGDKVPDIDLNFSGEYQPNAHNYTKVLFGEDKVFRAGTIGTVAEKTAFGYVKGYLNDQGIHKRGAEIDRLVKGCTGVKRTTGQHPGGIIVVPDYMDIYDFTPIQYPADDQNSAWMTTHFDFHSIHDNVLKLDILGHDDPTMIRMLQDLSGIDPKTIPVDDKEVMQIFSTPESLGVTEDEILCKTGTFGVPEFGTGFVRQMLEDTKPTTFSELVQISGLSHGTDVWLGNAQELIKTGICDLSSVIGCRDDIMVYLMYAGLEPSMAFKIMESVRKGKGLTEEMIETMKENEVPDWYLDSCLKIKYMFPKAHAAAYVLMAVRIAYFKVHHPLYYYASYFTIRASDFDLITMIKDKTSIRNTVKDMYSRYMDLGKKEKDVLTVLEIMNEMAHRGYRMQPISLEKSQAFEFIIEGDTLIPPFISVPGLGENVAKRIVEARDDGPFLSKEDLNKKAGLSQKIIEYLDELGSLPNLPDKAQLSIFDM", "experiment": "Ki assay for DNA polymerase IIIC (3H-dTTP incorporation, truncated assay)", "assay_type": "biochemical", "details": "Ki = concentration giving 50% inhibition of control activity; range stated for the listed group; read-out: Ki against Staphylococcus aureus DNA pol IIIC enzyme", "excerpt": "The ability of a compound to inhibit the activity of DNA pol IIIC enzyme can be tested by using a DNA polymerase assay as described, for example, in Barnes and Brown, Nucl. Acids Res. 1979, 6, 1203-1219; Trantolo et al., J. Med. Chem. 1986, 29, 676-681; Mills et al., J. Bacterial. 1977, 132, 641-649; Low et al., J. Biol. Chem. 1976, 251, 1311-1325. This rapid screening method can use natural or recombinant DNA pol III enzymes in a standard DNA polymerase activity assay. By including a test compound in a side-by-side assay with a control, the effect of the test compound on polymerase activity can be assessed. Compounds with an appropriate level (Ki<[…]) of inhibition of the natural or recombinant bacterial DNA polymerase III are preferred.\nThe DNA polymerase IIIC coding genes were amplified from genomic DNA. The primers were designed so the 5′-terminal and 3′-terminal contain BamHI and XhoI cutting site respectively. The fragment was directly inserted into expression plasmid pET-28a(+) between BamHI and XhoI sites. The recombinant protein had full length of original protein and a His tag, a thrombin site and a T7 tag at N-terminus. The coding sequence of recombinant protein was confirmed by Sanger sequencing using 8 primers to cover the entire coding regions.\nThe plasmid was transferred into BL21 (DE3) competent E. coli cells. The positive colonies were inoculated into 1 L LB medium and incubated at 37° C. with 200 rpm rotation to reach OD600=0.6. The inducer IPTG 1 mM was then added to induce the expression for 18 hours at 16° C. The cells were harvested and suspended in lysis buffer (25 mM Tris-HCl pH=7.5, 0.15 M NaCl, 20 mM imidazole, 2 mM β-mecaptoethanol and 1×Roche proteinase inhibitor cocktail). The cells were lyzed by sonication, and the debris was spun down at 50000 g for 1 hour.\nThe protein was isolated first by passing through the lysate through Ni column. The column was washed with 50 column volume (CV) binding buffer (lysis buffer without proteinase inhibitor) and then 10 CVs of washing buffer (binding buffer with total 40 mM imidazole). The protein was eluted out with elusion buffer (binding buffer with total 300 mM imidazole).\nThe crude extract was then further purified by size exclusion chromatography using a Superdex 200 increase 10/300 column with 25 mM Tris-HCl pH 7.5, 0.15 M NaCl, 5% Glycerol and 1 mM DTT. The final product was stored as 50-100 μL aliquots at −80° C.\nThe compounds were dissolved in DMSO to 1 mg/ml (or 10 mg/ml) as compound working solution. On the day of the test, […] of DMSO was added into well A, and 100 μL of DMSO was added into wells B through well H in a round bottom 96 well plate (Corning-3788). An aliquot of 20 μL compound working solution was added into well A and mixed by pipetting. From well A, […] solution was transferred to well B and mixed by pipetting to make a 3 x dilution. The procedure was repeated for well B to well C, and so forth until well G. Well H contained DMSO only. This generated a serial of compound working solutions with concentrations at 100, 33.3, 11.1, 3.7, 1.2, 0.4, 0.14, and 0 μg/ml in pure DMSO. This was deemed the ‘mother plate’.\nUsing a 96-head pipette station (CyBio), 1 μL compound working solutions were transferred from the mother plate into an identical 96-well plate. This was the ‘testing plate’. The testing plate was kept at room temperature.\nThe enzyme (DNA polymerase IIIC) samples were taken out from −80° C. freezer. It was thawed and kept on ice. The enzyme was diluted to 0.025-0.06 U/μL with dilution buffer (25 mM Tris-HCl, pH=7.5, 0.15M NaCl, 5% Glycerol, 1 mM DTT). One unit of enzyme is defined as the amount of enzyme could incorporate 250 μmole of dTTP in 30 minutes in a standard assay (with the presence of all nucleotide as substrate, in contrast to “truncated assay” from which dGTP was omitted) in the same system. The diluted enzymes were added into a new 96-well plate (Corning-3788) 20 μL per well. This plate was kept on ice. […]", "units": {"Ki": "nM"}, "values": [{"smiles": "Cn1ncc2nc(NCc3ccc(Cl)c(Cl)c3)[nH]c(=O)c21", "note": "[Compound 2, 5-((3,4-Dichlorobenzyl)amino)-1-methyl-1H-pyrazolo[4,3-d]pyrimidin-7(6H)-one]", "Ki": "53 to 1000"}, {"smiles": "Cc1nn(C)c2c(=O)[nH]c(NCc3ccc(Cl)c(Cl)c3)nc12", "note": "[Compound 44, 5-((3,4-dichlorobenzyl)amino)-1,3-dimethyl-1H-pyrazolo[4,3-d]pyrimidin-7(6H)-one]", "Ki": "53 to 1000"}, {"smiles": "C=CCn1ncc2nc(NCc3ccc(Cl)c(Cl)c3)[nH]c(=O)c21", "note": "[Compound 56, 1-allyl-5-((3,4-dichlorobenzyl)amino)-1H-pyrazolo[4,3-d]pyrimidin-7(6H)-one]", "Ki": "53 to 1000"}, {"smiles": "O=c1[nH]c(NCc2ccc(Cl)c(Cl)c2)nc2cn[nH]c12", "note": "[Compound 77, 5-((3,4-dichlorobenzyl)amino)-1H-pyrazolo[4,3-d]pyrimidin-7(6H)-one]", "Ki": "53 to 1000"}, {"smiles": "COCCn1ncc2nc(NCc3ccc(Cl)c(Cl)c3)[nH]c(=O)c21", "note": "[Compound 126, 5-((3,4-dichlorobenzyl)amino)-1-(2-methoxyethyl)-1H-pyrazolo[4,3-d]pyrimidin-7(6H)-one]", "Ki": "53 to 1000"}, {"smiles": "Cl.O=c1[nH]c(NCc2ccc(Cl)c(Cl)c2)nc2cnn(CC3CNCCO3)c12", "note": "(stereo not drawn) [Compound 149, 5-((3,4-dichlorobenzyl)amino)-1-(morpholin-2-ylmethyl)-1H-pyrazolo[4,3-d]pyrimidin-7(6H)-one hydrochloride]", "Ki": "53 to 1000"}, {"smiles": "Cl.Cl.O=c1[nH]c(NCc2ccc(Cl)c(Cl)c2)nc2cnn(CCOCCN3CCNCC3)c12", "note": "[Compound 167, 5-[(3,4-dichlorophenyl)methylamino]-1-[2-(2-piperazin-1-ylethoxy)ethyl]-6H-pyrazolo[4,3-d]pyrimidin-7-one]", "Ki": "53 to 1000"}, {"smiles": "CN(C)CCOCCn1ncc2nc(NCc3ccc(Cl)c(Cl)c3)[nH]c(=O)c21.Cl", "note": "[Compound 211, 5-((3,4-dichlorobenzyl)amino)-1-(2-(2-(dimethylamino)ethoxy)ethyl)-1H-pyrazolo[4,3-d]pyrimidin-7(6H)-one hydrochloride]", "Ki": "53 to 1000"}, {"smiles": "O=c1[nH]c(NCc2ccc(Cl)c(Cl)c2)nc2cnn(-c3ccccc3)c12", "note": "[Compound 212, 5-[(3,4-dichlorophenyl)methylamino]-1-phenyl-6H-pyrazolo[4,3-d]pyrimidin-7-one]", "Ki": "53 to 1000"}, {"smiles": "O=c1[nH]c(NCc2ccc(Cl)c(Cl)c2)nc2cnn(C3CC3)c12", "note": "[Compound 213, 1-Cyclopropyl-5-((3,4-dichlorobenzyl)amino)-1H-pyrazolo[4,3-d]pyrimidin-7(6H)-one]", "Ki": "53 to 1000"}, {"smiles": "O=c1[nH]c(NCc2ccc(Cl)c(Cl)c2)nc2cnn(C3CCCC3)c12", "note": "[Compound 214, 1-cyclopentyl-5-((3,4-dichlorobenzyl)amino)-1H-pyrazolo[4,3-d]pyrimidin-7(6H)-one]", "Ki": "53 to 1000"}, {"smiles": "COC(=O)CCCCn1ncc2nc(NCc3ccc(Cl)c(Cl)c3)[nH]c(=O)c21", "note": "[Compound 218, methyl 5-[5-[(3,4-dichlorophenyl)methylamino]-7-oxo-6H-pyrazolo[4,3-d]pyrimidin-1-yl]pentanoate]", "Ki": "53 to 1000"}, {"smiles": "Cl.O=c1[nH]c(NCc2ccc(Cl)c(Cl)c2)nc2cnn(C3CCN(C4CCOCC4)CC3)c12", "note": "[Compound 242, 5-((3,4-dichlorobenzyl)amino)-1-(1-(tetrahydro-2H-pyran-4-yl)piperidin-4-yl)-1H-pyrazolo[4,3-d]pyrimidin-7(6H)-one hydrochloride]", "Ki": "53 to 1000"}, {"smiles": "O=C(O)CCC(=O)N1CCC(n2ncc3nc(NCc4ccc(Cl)c(Cl)c4)[nH]c(=O)c32)CC1", "note": "[Compound 273, 4-(4-(5-((3,4-dichlorobenzyl)amino)-7-oxo-6,7-dihydro-1H-pyrazolo[4,3-d]pyrimidin-1-yl)piperidin-1-yl)-4-oxobutanoic Acid]", "Ki": "53 to 1000"}, {"smiles": "O=C([C@@H](O)[C@H](O)CO)N1CCC(n2ncc3nc(NCc4ccc(Cl)c(Cl)c4)[nH]c(=O)c32)CC1", "note": "[Compound 276, 5-((3,4-dichlorobenzyl)amino)-1-(1-((2S,3R)-2,3,4-trihydroxybutanoyl)piperidin-4-yl)-1H-pyrazolo[4,3-d]pyrimidin-7(6H)-one]", "Ki": "53 to 1000"}]}]}
